SMILES strings stand for the structures.

This assay deals with mTOR/GbL/Raptor (mTORC1) (Homo sapiens, UniProt P42345). As to the kind of experiment: mTOR/GbL/Raptor (mTORC1) ELISA assay. It is filed as biochemical. The settings on record: phosphorylation of 4E-BP1; 0.2 nM mTORC1, 10 μM ATP; read-out: IC50 in this assay (mTORC1 ELISA). In a few lines:
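Human mTORC1 (0.2 nM) phosphorylated 50 nM His-tagged 4E-BP1 with 10 µM ATP in HEPES pH 7.2 containing 10 mM MnCl2, 120 min at ambient temperature. Substrate was captured on Ni-chelate plates; phospho-4E-BP1 was detected by primary antibody and HRP secondary with luminescence.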
(In general: An ELISA detects its analyte on a solid surface through an enzyme-linked reagent.)
The IC50 is the concentration needed to halve the response being measured. As to `Nc1nc2ccc(-c3ccc4c(c3)CN(c3nc(-c5ccccc5)nc5ccccc35)CCO4)cc2[nH]1` [Example 233, 6-[4-(2-phenylquinazolin-4-yl)-2,3,4,5-tetrahydro-1,4-benzoxazepin-7-yl]-1H-benzimidazol-2-amine], the IC50 is 50 to 250 nM.
Regarding `Cc1nc2ncc(-c3ccc4c(c3)CN(c3ncnc5c3CC(C)(C)CC5)CCO4)cc2[nH]1` [Example 234, 4-(6,6-dimethyl-5,6,7,8-tetrahydroquinazolin-4-yl)-7-(2-methyl-1H-imidazo[4,5-b]pyridin-6-yl)-2,3,4,5-tetrahydro-1,4-benzoxazepine], the IC50 is not above 10 nM.
In the case of `CC1(C)CCc2ncnc(N3CCOc4ccc(-c5ccc6nc(N)[nH]c6c5)cc4C3)c2C1` [Example 236, 6-[4-(6,6-dimethyl-5,6,7,8-tetrahydroquinazolin-4-yl)-2,3,4,5-tetrahydro-1,4-benzoxazepin-7-yl]-1H-benzimidazol-2-amine], the IC50 is not above 10 nM.
With `CCNc1nc2ccc(-c3ccc4c(c3)CN(c3nc(C)nc5cc(OC)ccc35)CCO4)cc2[nH]1` [Example 237, N-ethyl-6-{4-[2-methyl-7-(methyloxy)quinazolin-4-yl]-2,3,4,5-tetrahydro-1,4-benzoxazepin-7-yl}-1H-benzimidazol-2-amine] the figure was 250 to 1000 nM.
With `CC1(C)CCc2ncnc(N3CCOc4ccc(-c5cnc6[nH]c(CF)nc6c5)cc4C3)c2C1` [Example 238, 4-(6,6-dimethyl-5,6,7,8-tetrahydroquinazolin-4-yl)-7-[2-(fluoromethyl)-3H-imidazo[4,5-b]pyridin-6-yl]-2,3,4,5-tetrahydro-1,4-benzoxazepine], the IC50 was not above 10 nM.
For the compound `CNC(=O)c1ccc(-c2ccc3c(c2)CN(c2ccnc4ccccc24)CCO3)cc1` [Example 239, N-methyl-4-(4-quinolin-4-yl-2,3,4,5-tetrahydro-1,4-benzoxazepin-7-yl)benzamide], the IC50 fell in the range of 50 to 250 nM.
With `COc1ccc2c(N3CCOc4ccc(-c5ccc(-c6nc7ccccc7[nH]6)cc5)cc4C3)nc(C)nc2c1` [Example 240, 7-[4-(1H-benzimidazol-2-yl)phenyl]-4-[2-methyl-7-(methyloxy)quinoazlin-4-yl]-2,3,4,5-tetrahydro-1,4-benzoxazepine], the IC50 was not below 2000 nM.
Next, `Cc1nc2ccc(-c3ccc4c(c3)CN(c3ccnc5cc(F)ccc35)CCO4)cc2[nH]1` [Example 241, 4-(7-fluoroquinolin-4-yl)-7-(2-methyl-1H-benzimidazol-6-yl)-2,3,4,5-tetrahydro-1,4-benzoxazepine]: 250 to 1000 nM; `Cc1nc2ccc(-c3ccc4c(c3)CN(c3ccnc5cc(C#N)ccc35)CCO4)cc2[nH]1` [Example 242, 4-[7-(2-methyl-1H-benzimidazol-6-yl)-2,3-dihydro-1,4-benzoxazepin-4(5H)-yl]quinolin-7-carbonitrile]: not below 2000 nM; `CCNC(=O)c1ccc(-c2ccc3c(c2)CN(c2ccnc4ccccc24)CCO3)cc1` [Example 243, N-ethyl-4-(4-quinolin-4-yl-2,3,4,5-tetrahydro-1,4-benzoxazepin-7-yl)benzamide]: 50 to 250 nM.
`CCCNC(=O)c1ccc(-c2ccc3c(c2)CN(c2ccnc4ccccc24)CCO3)cc1` [Example 244, N-propyl-4-(4-quinolin-4-yl-2,3,4,5-tetrahydro-1,4-benzoxazepin-7-yl)benzamide]: the IC50 was 50 to 250 nM.
Next, `CCc1ncnc(N2CCOc3ccc(-c4cnc5nc(C)[nH]c5c4)cc3C2)c1C` [Example 245, 4-(6-ethyl-5-methylpyrimidin-4-yl)-7-(2-methyl-1H-imidazo[4,5-b]pyridin-6-yl)-2,3,4,5-tetrahydro-1,4-benzoxazepine]: 50 to 250 nM; `CCNc1nc2ccc(-c3ccc4c(c3)CN(c3cc(C)nc5ccccc35)CCO4)cc2[nH]1` [Example 246, N-ethyl-6-[4-(2-methylquinolin-4-yl)-2,3,4,5-tetrahydro-1,4-benzoxazepin-7-yl]-1H-benzimidazol-2-amine]: 50 to 250 nM.

The values above are taken from patent US8648066B2 (Exelixis, Inc., priority 2009, dated 2014).
